The values that follow come from ChEMBL document CHEMBL4152312, “Identification of fused pyrimidines as interleukin 17 secretion inhibitors” (Eur J Med Chem, 2018).

The target of assay [1] is Tyrosine-protein kinase Lyn (Homo sapiens) (UniProt P07948). Description: Inhibition of recombinant human full-length N-terminal His-tagged LYN-B expressed in baculovirus expression system at 500 nM by Z-LYTE assay relative to control.
The next assay concerns PBMC. Description: Inhibition of IL-17 secretion in anti-human CD3 antibody/anti-human CD28 antibody/IL23-stimulated human PBMC after 48 hrs by ELISA. It counts as functional, cell-based.
The target in assay [2] is Tyrosine-protein kinase BTK (Homo sapiens) (UniProt Q06187). Description: Inhibition of recombinant human full length His-tagged BTK expressed in baculovirus expression system at 500 nM by Z-LYTE assay relative to control.
Assay [3] has as its target Epidermal growth factor receptor (Homo sapiens) (UniProt P00533). Description: Inhibition of recombinant human GST-tagged wild-type EGFR cytoplasmic domain (668 to 1210 residues) expressed in baculovirus expression system at 500 nM by Z-LYTE assay relative to control.
The target of assay [4] is Receptor-type tyrosine-protein kinase FLT3 (Homo sapiens) (UniProt P36888). Description: Inhibition of recombinant human His-tagged FLT3 cytoplasmic domain (564 to 958 residues) expressed in baculovirus expression system at 500 nM by Z-LYTE assay relative to control.
Assay [5] addresses T1, Inhibitor of nuclear factor kappa-B kinase subunit epsilon (Homo sapiens) (UniProt Q14164).
T1 sequence (whole entry): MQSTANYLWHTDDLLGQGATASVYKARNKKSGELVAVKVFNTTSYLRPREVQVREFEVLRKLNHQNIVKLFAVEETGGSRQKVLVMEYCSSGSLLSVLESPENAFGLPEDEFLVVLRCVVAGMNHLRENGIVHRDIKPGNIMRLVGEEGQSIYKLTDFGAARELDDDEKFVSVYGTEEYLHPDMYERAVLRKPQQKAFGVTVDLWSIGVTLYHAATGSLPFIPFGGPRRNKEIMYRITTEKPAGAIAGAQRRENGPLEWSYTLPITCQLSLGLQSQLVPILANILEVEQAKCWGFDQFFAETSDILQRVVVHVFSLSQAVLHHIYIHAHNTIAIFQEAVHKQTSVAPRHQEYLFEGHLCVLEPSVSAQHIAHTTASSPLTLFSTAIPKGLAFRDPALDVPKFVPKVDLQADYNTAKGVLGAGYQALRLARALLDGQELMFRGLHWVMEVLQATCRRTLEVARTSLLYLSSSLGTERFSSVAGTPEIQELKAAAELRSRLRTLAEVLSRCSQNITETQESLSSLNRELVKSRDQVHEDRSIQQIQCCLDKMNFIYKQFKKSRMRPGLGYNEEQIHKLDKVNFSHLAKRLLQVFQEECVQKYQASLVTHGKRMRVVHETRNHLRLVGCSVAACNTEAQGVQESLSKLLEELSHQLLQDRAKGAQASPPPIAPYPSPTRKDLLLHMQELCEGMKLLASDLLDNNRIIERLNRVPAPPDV
Description: Inhibition of recombinant full-length human GST-tagged IKKepsilon expressed in baculovirus expression system at 500 nM by Z-LYTE assay relative to control.

The target of assay [6] is Tyrosine-protein kinase JAK2 (Homo sapiens) (UniProt O60674). Description: Inhibition of recombinant human GST-tagged JAK2 cytoplasmic domain (809 to […] residues) expressed in baculovirus expression system at 500 nM by Z-LYTE assay relative to control.
In assay [7] the target is Tyrosine-protein kinase Lck (Homo sapiens) (UniProt P06239). Description: Inhibition of recombinant full-length human His-tagged LCK expressed in baculovirus expression system at 500 nM by Z-LYTE assay relative to control.
Assay [8] has as its target Mitogen-activated protein kinase 11 (Homo sapiens) (UniProt Q15759). Description: Inhibition of recombinant human full length His-tagged p38-beta expressed in baculovirus expression system at 500 nM by Z-LYTE assay relative to control.
Assay [9] deals with T2, Mitogen-activated protein kinase 13 (Homo sapiens) (UniProt O15264).
T2 sequence (whole entry): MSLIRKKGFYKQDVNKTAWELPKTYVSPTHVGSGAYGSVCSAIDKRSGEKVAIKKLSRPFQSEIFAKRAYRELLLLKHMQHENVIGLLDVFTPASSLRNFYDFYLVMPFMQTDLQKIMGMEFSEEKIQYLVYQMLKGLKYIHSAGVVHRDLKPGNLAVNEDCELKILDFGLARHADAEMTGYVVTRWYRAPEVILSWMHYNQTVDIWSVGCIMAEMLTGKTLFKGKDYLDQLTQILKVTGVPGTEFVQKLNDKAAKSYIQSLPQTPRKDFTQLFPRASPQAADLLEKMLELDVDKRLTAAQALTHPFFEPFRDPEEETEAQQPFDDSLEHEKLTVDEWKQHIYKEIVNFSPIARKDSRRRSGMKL
Description: Inhibition of recombinant human full length His-tagged p38-delta expressed in baculovirus expression system at 500 nM by Z-LYTE assay relative to control.

In assay [10] the target is Mitogen-activated protein kinase 14 (Homo sapiens) (UniProt Q16539). Description: Inhibition of recombinant human full length His-tagged p38-alpha expressed in baculovirus expression system at 500 nM by Z-LYTE assay relative to control.
For assay [11], the target named is Platelet-derived growth factor receptor alpha (Homo sapiens) (UniProt P16234). Description: Inhibition of recombinant human GST-tagged PDGFRalpha cytoplasmic domain (550 to 1089 residues) expressed in baculovirus expression system at 500 nM by Z-LYTE assay relative to control.
The target in assay [12] is Platelet-derived growth factor receptor beta (Homo sapiens) (UniProt P09619). Description: Inhibition of recombinant human His-tagged PDGFRbeta cytoplasmic domain expressed in baculovirus expression system at 500 nM by Z-LYTE assay relative to control.
For assay [13], the target named is PI3-kinase p110-delta/p85-alpha (Homo sapiens) (UniProt P27986+O00329). Description: Inhibition of PI3K p110delta/p85alpha (unknown origin) at 500 nM by Z-LYTE assay relative to control. It counts as protein-complex assay.
Assay [14] concerns the target Serine/threonine-protein kinase pim-3 (Homo sapiens) (UniProt Q86V86). Description: Inhibition of recombinant full length human GST-tagged PIM3 expressed in insect cells at 500 nM by Z-LYTE assay relative to control.
Assay [15] addresses Protein kinase C beta type (Homo sapiens) (UniProt P05771). Description: Inhibition of recombinant full length human GST-tagged PKCbeta-1 expressed in insect cells at 500 nM by Z-LYTE assay relative to control.
Assay [16] concerns the target Protein kinase C theta type (Homo sapiens) (UniProt Q04759). Description: Inhibition of recombinant full length human His-tagged PKCtheta expressed in baculovirus expression system at 500 nM by Z-LYTE assay relative to control.
In assay [17] the target is Rho-associated protein kinase 1 (Homo sapiens) (UniProt Q13464). Description: Inhibition of recombinant human GST-tagged ROCK1 cytoplasmic domain expressed in baculovirus expression system at 500 nM by Z-LYTE assay relative to control.
Assay [18] addresses Proto-oncogene tyrosine-protein kinase ROS (Homo sapiens) (UniProt P08922). Description: Inhibition of recombinant human GST-tagged ROS1 cytoplasmic domain (1883 to 2347 residues) expressed in baculovirus expression system at 500 nM by Z-LYTE assay relative to control.

pIC50: −log10 of the molar value.

Sequence of Rho-associated protein kinase 1 (Homo sapiens) (Q13464 2-1354 limits assumed): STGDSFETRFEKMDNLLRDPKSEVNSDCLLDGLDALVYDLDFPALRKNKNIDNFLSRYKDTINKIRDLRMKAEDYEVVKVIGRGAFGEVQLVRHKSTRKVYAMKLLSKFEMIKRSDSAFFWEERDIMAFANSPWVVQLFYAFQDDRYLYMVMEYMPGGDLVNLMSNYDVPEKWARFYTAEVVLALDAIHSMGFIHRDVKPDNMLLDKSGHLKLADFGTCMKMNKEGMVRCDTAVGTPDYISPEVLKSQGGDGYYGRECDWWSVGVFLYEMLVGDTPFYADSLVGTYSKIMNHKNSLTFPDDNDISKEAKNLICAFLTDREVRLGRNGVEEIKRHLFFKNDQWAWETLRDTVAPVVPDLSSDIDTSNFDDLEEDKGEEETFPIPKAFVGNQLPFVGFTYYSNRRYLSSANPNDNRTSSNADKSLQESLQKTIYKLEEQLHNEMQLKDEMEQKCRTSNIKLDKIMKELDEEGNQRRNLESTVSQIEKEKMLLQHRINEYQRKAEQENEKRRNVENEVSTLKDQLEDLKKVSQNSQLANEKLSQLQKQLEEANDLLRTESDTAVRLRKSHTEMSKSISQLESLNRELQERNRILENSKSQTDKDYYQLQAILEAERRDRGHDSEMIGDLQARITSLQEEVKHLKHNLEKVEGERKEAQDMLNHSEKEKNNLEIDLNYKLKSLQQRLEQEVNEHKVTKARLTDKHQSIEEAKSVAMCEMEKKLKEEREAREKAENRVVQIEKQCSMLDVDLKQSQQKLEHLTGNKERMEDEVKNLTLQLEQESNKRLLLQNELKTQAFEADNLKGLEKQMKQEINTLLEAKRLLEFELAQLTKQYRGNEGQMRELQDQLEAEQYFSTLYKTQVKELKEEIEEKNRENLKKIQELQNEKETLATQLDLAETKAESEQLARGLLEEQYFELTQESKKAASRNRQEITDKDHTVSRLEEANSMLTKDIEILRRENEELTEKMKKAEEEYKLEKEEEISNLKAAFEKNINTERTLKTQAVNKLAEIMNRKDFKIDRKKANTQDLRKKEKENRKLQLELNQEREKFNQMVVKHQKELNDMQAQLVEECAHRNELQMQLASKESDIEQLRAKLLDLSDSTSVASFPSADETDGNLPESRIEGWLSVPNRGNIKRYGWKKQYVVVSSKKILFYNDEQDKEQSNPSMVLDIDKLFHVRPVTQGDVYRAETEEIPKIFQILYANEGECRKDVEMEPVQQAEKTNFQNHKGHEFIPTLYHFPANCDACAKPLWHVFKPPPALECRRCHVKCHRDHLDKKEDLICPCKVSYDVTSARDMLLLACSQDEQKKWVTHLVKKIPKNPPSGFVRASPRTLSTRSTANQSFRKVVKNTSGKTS
Sequence of Epidermal growth factor receptor (Homo sapiens) (P00533 whole entry, the tested form may be a part): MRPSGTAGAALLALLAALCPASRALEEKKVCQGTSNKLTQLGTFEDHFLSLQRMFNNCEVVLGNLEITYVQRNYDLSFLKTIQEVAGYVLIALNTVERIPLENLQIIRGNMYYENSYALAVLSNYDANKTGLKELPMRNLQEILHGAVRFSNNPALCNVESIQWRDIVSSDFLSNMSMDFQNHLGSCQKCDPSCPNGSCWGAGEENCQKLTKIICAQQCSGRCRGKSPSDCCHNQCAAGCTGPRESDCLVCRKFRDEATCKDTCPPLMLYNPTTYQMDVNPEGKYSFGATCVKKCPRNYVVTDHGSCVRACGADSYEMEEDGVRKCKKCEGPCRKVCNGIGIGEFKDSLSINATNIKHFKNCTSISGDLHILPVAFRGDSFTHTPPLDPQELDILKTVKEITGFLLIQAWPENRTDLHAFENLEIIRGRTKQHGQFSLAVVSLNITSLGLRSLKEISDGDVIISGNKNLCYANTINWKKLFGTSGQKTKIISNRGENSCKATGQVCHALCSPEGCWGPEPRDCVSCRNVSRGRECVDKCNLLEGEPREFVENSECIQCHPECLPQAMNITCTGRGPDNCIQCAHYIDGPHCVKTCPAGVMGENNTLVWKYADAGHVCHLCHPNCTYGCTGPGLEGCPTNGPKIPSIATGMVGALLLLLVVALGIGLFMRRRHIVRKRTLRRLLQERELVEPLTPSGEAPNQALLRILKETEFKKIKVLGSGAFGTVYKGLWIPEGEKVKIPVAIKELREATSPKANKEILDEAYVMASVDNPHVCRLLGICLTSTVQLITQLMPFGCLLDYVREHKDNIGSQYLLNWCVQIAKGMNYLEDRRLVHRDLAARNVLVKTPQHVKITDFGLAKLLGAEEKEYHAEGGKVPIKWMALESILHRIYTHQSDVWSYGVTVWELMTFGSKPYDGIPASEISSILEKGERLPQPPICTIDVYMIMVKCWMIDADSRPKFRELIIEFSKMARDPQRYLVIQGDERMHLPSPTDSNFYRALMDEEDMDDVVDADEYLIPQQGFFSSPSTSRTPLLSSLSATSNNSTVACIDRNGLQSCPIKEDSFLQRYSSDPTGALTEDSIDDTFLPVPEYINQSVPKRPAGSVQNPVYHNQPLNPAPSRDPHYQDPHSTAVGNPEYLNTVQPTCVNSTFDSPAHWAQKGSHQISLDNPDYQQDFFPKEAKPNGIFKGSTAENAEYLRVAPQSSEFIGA
Sequence of Tyrosine-protein kinase BTK (Homo sapiens) (Q06187 whole entry, the tested form may be a part): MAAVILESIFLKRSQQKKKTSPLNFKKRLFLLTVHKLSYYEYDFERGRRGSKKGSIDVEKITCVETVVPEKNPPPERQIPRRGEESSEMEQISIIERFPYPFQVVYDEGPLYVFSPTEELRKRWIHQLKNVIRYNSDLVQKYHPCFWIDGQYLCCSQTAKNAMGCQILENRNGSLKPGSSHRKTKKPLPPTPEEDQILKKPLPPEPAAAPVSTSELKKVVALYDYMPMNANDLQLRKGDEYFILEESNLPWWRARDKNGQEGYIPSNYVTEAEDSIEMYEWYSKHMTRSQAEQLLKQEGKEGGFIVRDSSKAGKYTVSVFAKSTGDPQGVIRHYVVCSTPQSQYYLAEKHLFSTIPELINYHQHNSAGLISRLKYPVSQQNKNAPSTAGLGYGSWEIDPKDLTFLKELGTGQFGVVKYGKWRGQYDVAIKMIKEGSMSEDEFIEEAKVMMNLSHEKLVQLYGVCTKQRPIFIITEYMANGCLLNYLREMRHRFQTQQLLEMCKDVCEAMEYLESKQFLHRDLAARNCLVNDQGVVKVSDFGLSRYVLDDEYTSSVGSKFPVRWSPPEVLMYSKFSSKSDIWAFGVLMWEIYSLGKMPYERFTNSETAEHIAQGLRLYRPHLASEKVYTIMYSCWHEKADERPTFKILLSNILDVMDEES
Sequence of Tyrosine-protein kinase Lck (Homo sapiens) (P06239 2-509 limits assumed): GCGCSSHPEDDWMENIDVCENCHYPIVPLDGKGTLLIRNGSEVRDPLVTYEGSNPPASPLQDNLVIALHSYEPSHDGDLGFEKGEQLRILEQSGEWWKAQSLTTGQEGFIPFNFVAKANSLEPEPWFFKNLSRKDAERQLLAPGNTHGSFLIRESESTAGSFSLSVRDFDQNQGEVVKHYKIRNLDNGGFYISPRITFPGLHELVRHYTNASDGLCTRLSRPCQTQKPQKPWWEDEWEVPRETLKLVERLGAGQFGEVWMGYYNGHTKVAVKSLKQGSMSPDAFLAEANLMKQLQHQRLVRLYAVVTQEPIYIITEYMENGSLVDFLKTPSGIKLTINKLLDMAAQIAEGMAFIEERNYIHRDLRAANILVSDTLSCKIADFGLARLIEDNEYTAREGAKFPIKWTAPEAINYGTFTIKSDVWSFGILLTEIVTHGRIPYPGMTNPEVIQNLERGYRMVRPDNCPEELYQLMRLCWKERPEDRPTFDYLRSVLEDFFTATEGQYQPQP
Sequence of Protein kinase C beta type (Homo sapiens) (P05771 2-671 limits assumed): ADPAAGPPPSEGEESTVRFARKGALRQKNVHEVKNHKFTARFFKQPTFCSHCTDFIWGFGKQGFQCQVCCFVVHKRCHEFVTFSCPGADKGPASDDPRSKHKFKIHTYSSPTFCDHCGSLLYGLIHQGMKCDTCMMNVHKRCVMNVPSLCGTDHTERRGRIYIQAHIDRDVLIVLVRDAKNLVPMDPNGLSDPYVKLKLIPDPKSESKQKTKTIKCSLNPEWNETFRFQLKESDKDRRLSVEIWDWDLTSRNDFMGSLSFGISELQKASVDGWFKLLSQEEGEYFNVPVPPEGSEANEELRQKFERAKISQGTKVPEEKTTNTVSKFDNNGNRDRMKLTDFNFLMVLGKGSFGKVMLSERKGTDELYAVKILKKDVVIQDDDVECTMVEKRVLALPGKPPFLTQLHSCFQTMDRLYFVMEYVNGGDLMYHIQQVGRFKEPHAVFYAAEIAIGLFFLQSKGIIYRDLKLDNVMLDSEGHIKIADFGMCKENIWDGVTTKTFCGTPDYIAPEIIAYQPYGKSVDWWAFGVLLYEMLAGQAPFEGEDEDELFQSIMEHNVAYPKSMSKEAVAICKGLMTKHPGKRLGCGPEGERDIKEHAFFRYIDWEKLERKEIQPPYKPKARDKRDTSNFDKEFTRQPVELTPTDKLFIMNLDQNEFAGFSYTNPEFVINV
Sequence of Tyrosine-protein kinase Lyn (Homo sapiens) (P07948 2-512 limits assumed): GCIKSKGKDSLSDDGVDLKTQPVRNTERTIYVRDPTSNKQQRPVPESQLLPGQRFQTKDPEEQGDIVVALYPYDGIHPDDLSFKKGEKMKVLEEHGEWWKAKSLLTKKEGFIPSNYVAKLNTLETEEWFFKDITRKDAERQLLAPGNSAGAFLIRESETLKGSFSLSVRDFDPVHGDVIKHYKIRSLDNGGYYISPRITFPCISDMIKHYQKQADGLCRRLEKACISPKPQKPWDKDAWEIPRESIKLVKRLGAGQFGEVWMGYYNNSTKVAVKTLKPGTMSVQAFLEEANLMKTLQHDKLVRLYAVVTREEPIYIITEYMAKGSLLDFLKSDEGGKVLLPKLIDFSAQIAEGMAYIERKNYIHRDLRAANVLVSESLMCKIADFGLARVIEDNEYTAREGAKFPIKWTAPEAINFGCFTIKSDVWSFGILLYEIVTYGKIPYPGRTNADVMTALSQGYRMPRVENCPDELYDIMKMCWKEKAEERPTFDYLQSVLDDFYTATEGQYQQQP

With `CCC(=O)Nc1ccc(-c2c[nH]c3ncnc(N[C@H](C)c4ccccc4)c23)cc1`, the inhibition in assay [1] was 27%; in assay [2] it was 3%; in assay [3], 98%; in assay [4], 42%; in assay [5], -2%; in assay [6] it was 13%. Besides, the inhibition stood at 19% in assay [7]; 2% in assay [8]; 3% in assay [9]; 3% in [10]; 8% in [11]; 5% in assay [12]. The inhibition was 13% in [13]; -1% in assay [14]; 14% in assay [15]; 6% in [16]; 3% in assay [17]; 22% in [18]. Moreover, in the assay with PBMC, the pIC50 was 5.68.

On to `OCc1ccc(-c2cc3c(N[C@H](CO)c4ccccc4)ncnc3[nH]2)cc1`, for which the inhibition in assay [1] stood at 70%; in [2], 9%; in [4], 43%; in assay [5], 3%; in assay [6] it was 6%; in assay [7] it was 36%. The inhibition in assay [8] was found to be 6%; in assay [9], 0%; in assay [10], 17%; in [11] it was 12%; in [12], 7%; in assay [13], 2%. The inhibition is 3% in assay [14]; -1% in [15]; -2% in assay [16]; -1% in [17]; 71% in assay [18]. In the assay with PBMC, this molecule had a pIC50 of 5.85.

`OC[C@@H](Nc1ncnc2sc(-c3ccc(O)cc3)cc12)c1ccccc1`: the inhibition in assay [1] was 7%; in [2], 5%; in assay [3], 99%; in [4], 16%; in [5] it was -1%; in [6], 1%. Further, the inhibition is 3% in assay [7]; 4% in assay [8]; -2% in assay [9]; 8% in [10]; 0% in assay [11]; 1% in assay [12]. In addition, the inhibition in assay [13] is 0%; in assay [14], 7%; in [15], -9%; in assay [16], -7%; in [17], 4%; in assay [18], 23%. Further, in the assay with PBMC, the pIC50 is 5.55.

Regarding `CN(C)CCn1cc(-c2cccc(O)c2)c2c(N)ncnc21`, the inhibition in assay [1] was 49%; in [2], 62%; in [3], 4%; in assay [4] it was 38%; in [5] it was 3%; in assay [6], 7%. The inhibition is 32% in assay [7]; 2% in assay [8]; 1% in [9]; 8% in assay [10]; 18% in assay [11]; 5% in assay [12]. The inhibition in assay [14] is -7%; in assay [15] it was 8%; in [16], 8%; in assay [17], 17%; in assay [18], 15%. This molecule also showed a pIC50 in the assay with PBMC of 5.92.
